Measured values as given in patent US9974792B2, “Methods for treating cancers” (Gilead Sciences, Inc., priority 2013, dated 2018).

Experiments:
human subjects with CLL = experiment: Example 1: investigator assessed nodal response in CLL subjects; type: in vivo; details: CLL subjects (n=29); 800 mg BID fasting
Text: The sample size was 10-40/arm.

[1] = tested on: CCL3/MIP1alpha, CCL4/MIP1beta, CCL22/MDC, and TNFalpha; experiment: Example 1: plasma chemokine/cytokine levels by Luminex immunoassays; type: in vivo, human; details: Days 8 and 29 vs Day 1; CLL subjects (n=20)
Text: FIG. 9 summarizes the inhibition of BCR-mediated chemokine/cytokines after treatment in CLL subjects.

[2] = tested on: subjects with CLL, FL, lymphoplasmacytoid lymphoma/SLL/marginal zone lymphoma, MCL, or DLBCL; experiment: Example 2: phase 2 trial, safety analysis of all treated subjects
Method: A phase 2, open-label, single-agent study was completed to evaluate the efficacy, safety, tolerability, and pharmacodynamics of entospletinib in subjects with relapsed or refractory hematologic malignancies.
Treatment with entospletinib was at a dose of 800 mg twice a day over 28-day cycles under fasted conditions. Fasting was defined as no food or liquids other than water for 2 hours pre- and 1 hour post-dose.
Secondary end points included tolerability, objective response rate (ORR), duration of response (DOR), time to response, and lymph node response rate. […] Exploratory end points included plasma drug concentrations and pharmacodynamic biomarkers.
Subjects were allowed to enroll in the study if they had cytopenias due to CLL. Treatment-emergent cytopenias were defined as a cytopenia that worsened in the period from the first dose of study treatment to 30 days after the last dose of study treatment.

[3] = Example 2: entospletinib plasma pharmacokinetics; type: in vivo, human; details: 800 mg twice a day, fasted
Text: Clinic visits, including laboratory tests and pharmacodynamic measurements, were scheduled for day 1 of each 28-day cycle. Blood samples for pharmacokinetic analyses of entospletinib were collected on day 1 of each 28-day cycle, on days 8, 15, and 22 of cycle 1 and on day 15 of cycle 2. Additional safety monitoring visits took place on days 8, 15, and 22 of cycle 1 and day 15 of cycle 2.

CCL22 = experiment: Example 2: serum chemokine/cytokine levels; type: in vivo, human; details: days 8 and 29 of therapy
Text: (§1) A bone marrow biopsy and aspirate were collected for confirmatory purposes for all subjects who achieved a complete response (CR) or to confirm suspected PD based solely upon declines in the platelet count and/or hemoglobin. Pharmacodynamic assessments, including serum cytokines and protein phosphorylation in circulating CLL cells, occurred before starting therapy and at designated time points thereafter.

[4] = tested on: tumor necrosis factor alpha (TNF-α); experiment: Example 2: serum chemokine/cytokine levels; type: in vivo, human; details: days 8 and 29 of therapy
Text: as §1

[5] = tested on: human subjects with CLL or NHL; experiment: Example 1: safety, disposition and adverse events (Safety Data Set);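 note: evaluated subjects had CLL, FL, DLBCL, MCL, LPL, SLL or MZL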
Method: Subjects having various hematologic malignancies were evaluated, including subjects with chronic lymphocytic leukemia (CLL), follicular lymphoma (FL), diffuse large B-cell lymphoma (DLBCL), mantle cell lymphoma (MCL), lymphoplasmacytic lymphoma (LPL), small lymphocytic lymphoma (SLL), and marginal zone lymphoma (MZL). The sample size was 10-40/arm.
Alanine aminotransferase (ALT) was also measured in the subjects.

[6] = out of 78 subjects, 800 mg BID fasting

c1cn2cc(-c3ccc4cn[nH]c4c3)nc(Nc3ccc(N4CCOCC4)cc3)c2n1 [compound of formula I, 6-(1H-indazol-6-yl)-N-(4-morpholinophenyl)imidazo[1,2-a]pyrazin-8-amine]
overall nodal response rate (human subjects with CLL): 69%
BCR-mediated chemokine/cytokines, plasma levels [1]: inhibition
AE leading to study drug discontinuation: fatigue ([2]; N = 145): 3 n
AE leading to study drug discontinuation: headache ([2]; N = 145): 3 n
AE leading to study drug discontinuation: increased ALT ([2]; N = 145): 3 n
AEs resulting in discontinuation, % of all treated subjects ([2]; N = 145): 14.5%
AEs resulting in dose reduction, % of all treated subjects ([2]; N = 145): 7.6%
Constipation, Any grade, % ([2]; N = 145): (24.1) %
Constipation, At least grade 3, % ([2]; N = 145): (1.4) %
Cough, Any grade, % ([2]; N = 145): (19.3) %
Cough, At least grade 3, % ([2]; N = 145): (0.7) %
Decreased appetite, Any grade, % ([2]; N = 145): (24.1) %
Decreased appetite, At least grade 3, % ([2]; N = 145): (0.7) %
Diarrhea, Any grade, % ([2]; N = 145): (34.5) %
Diarrhea, At least grade 3, % ([2]; N = 145): (0.7) %
Dizziness, Any grade, % ([2]; N = 145): (20.7) %
Dizziness, At least grade 3, % ([2]; N = 145): (0.7) %
Fatigue, Any grade, % ([2]; N = 145): (51.7) %
Fatigue, At least grade 3, % ([2]; N = 145): (6.9) %
Grade 3 fatigue, % ([2]; N = 145): 6.9%
Grade 3 fatigue, subjects ([2]; N = 145): 10 subjects
Headache, Any grade, % ([2]; N = 145): (22.8) %
Headache, At least grade 3, % ([2]; N = 145): (0.7) %
Insomnia, Any grade, % ([2]; N = 145): (15.9) %
Laboratory abnormality: Anemia, Any grade, % ([2]; N = 145): (37.2) %
Laboratory abnormality: Increased ALT, Any grade, % ([2]; N = 145): (37.2) %
Laboratory abnormality: Increased ALT, At least grade 3, % ([2]; N = 145): (13.8) %
Laboratory abnormality: Increased AST, Any grade, % ([2]; N = 145): (33.8) %
Laboratory abnormality: Increased AST, At least grade 3, % ([2]; N = 145): (12.4) %
Laboratory abnormality: Neutropenia, Any grade, % ([2]; N = 145): (32.4) %
Laboratory abnormality: Thrombocytopenia, Any grade, % ([2]; N = 145): (6.9) %
Laboratory abnormality: Thrombocytopenia, At least grade 3, % ([2]; N = 145): (2.8) %
Laboratory abnormality: Total bilirubin, Any grade, % ([2]; N = 145): (31.0) %
Laboratory abnormality: Total bilirubin, At least grade 3, % ([2]; N = 145): (4.1) %
Nausea, Any grade, % ([2]; N = 145): (40) %
Nausea, At least grade 3, % ([2]; N = 145): (3.4) %
Pyrexia, Any grade, % ([2]; N = 145): (21.4) %
Pyrexia, At least grade 3, % ([2]; N = 145): (2.1) %
Serious AE: Anemia, % ([2]; N = 145): (2.1) %
Serious AE: Back pain, % ([2]; N = 145): (2.1) %
Serious AE: Chest pain, % ([2]; N = 145): (2.1) %
Serious AE: Dyspnea, % ([2]; N = 145): (3.4) %
Serious AE: Febrile neutropenia, % ([2]; N = 145): (2.8) %
Serious AE: Pneumonia, % ([2]; N = 145): (3.4) %
Serious AE: Pyrexia, % ([2]; N = 145): (2.8) %
grade 2 rash, % ([2]; N = 145): 1.4%
grade 3 dyspnea, % ([2]; N = 145): 6.2%
grade 3 nausea, % ([2]; N = 145): 3.4%
grade 3 rash, % ([2]; N = 145): 1.4%
grade 4 rash, % ([2]; N = 145): 0.7%
subjects with a treatment-emergent AE that led to study drug discontinuation ([2]; N = 145): 15.2%
subjects with a treatment-emergent, serious AE ([2]; N = 145): 31.0%
subjects who died while on study, % ([2]; N=145, none attributed by the investigator to entospletinib): 12.4%
subjects with at least one AE ([2]; all treated subjects N=145): 94.5%
time to grade 3 or 4 ALT/AST elevation, first quartile ([2]; human, in vivo, 800 mg): 4.1 weeks
time to grade 3 or 4 ALT/AST elevation, third quartile ([2]; human, in vivo, 800 mg): 6.1 weeks
subjects with ALT/AST elevation who resumed after interruption without further event, % ([2]; of 21 subjects): 57.1%
grade 3 or 4 ALT/AST elevations that occurred by 6 weeks ([2]; of 21 subjects with elevations): 10
Reversible grade 3 or 4 ALT/AST elevations, % ([2]; of 145 subjects): 14.5%
Reversible grade 3 or 4 ALT/AST elevations, subjects ([2]; of 145 subjects): 21 subjects
deaths on study due to disease progression ([2]; of eighteen deaths): 13
tolerability ([2]; phase 2 study): well tolerated
Ctrough, mean (% coefficient of variation) [3]: 1100 (44%) ng/mL
Cmax ([3]; human, oral, read-out: Cmax, mean (% coefficient of variation)): 1490 ng/mL
Serum levels of CCL22 (CCL22): inhibited
Serum levels of tumor necrosis factor alpha (TNF-α) [4]: inhibited
Discontinuing study drug: Adverse Events, % ([5]; ALL N = 78): (14.1%)
Discontinuing study drug: Progressive Disease, % ([5]; ALL N = 78): (19.2%)
Discontinuing study drug: Related AEs, % ([5]; ALL N = 78): (7.7%)
Discontinuing study drug: Adverse Events, % ([5]; CLL N = 39): (7.7%)
Discontinuing study drug: Progressive Disease, % ([5]; CLL N = 39): (10.3%)
Discontinuing study drug: Related AEs, % ([5]; CLL N = 39): (5.1%)
Discontinuing study drug: Adverse Events, % ([5]; NHL N = 39): (20.5%)
Discontinuing study drug: Progressive Disease, % ([5]; NHL N = 39): (28.2%)
Discontinuing study drug: Related AEs, % ([5]; NHL N = 39): (10.3%)
Any event, All Grades, % ([5]; Safety Data Set N=78): (93.6) %
Constipation, All Grades, % ([5]; Safety Data Set N=78): (21.8) %
Constipation, Grade 1 ([5]; Safety Data Set N=78): 11
Constipation, Grade 2 ([5]; Safety Data Set N=78): 5
Constipation, Grade 3 ([5]; Safety Data Set N=78): 1
Cough, All Grades, % ([5]; Safety Data Set N=78): (14.1) %
Cough, Grade 1 ([5]; Safety Data Set N=78): 9
Cough, Grade 2 ([5]; Safety Data Set N=78): 1
Cough, Grade 3 ([5]; Safety Data Set N=78): 1
Decreased appetite, All Grades, % ([5]; Safety Data Set N=78): (20.5) %
Decreased appetite, Grade 1 ([5]; Safety Data Set N=78): 10
Decreased appetite, Grade 2 ([5]; Safety Data Set N=78): 6
Diarrhea, All Grades, % ([5]; Safety Data Set N=78): (28.2) %
Diarrhea, Grade 1 ([5]; Safety Data Set N=78): 20
Diarrhea, Grade 2 ([5]; Safety Data Set N=78): 2
Dizziness, All Grades, % ([5]; Safety Data Set N=78): (17.9) %
Dizziness, Grade 1 ([5]; Safety Data Set N=78): 14
Dyspepsia, All Grades, % ([5]; Safety Data Set N=78): (10.3) %
Dyspepsia, Grade 1 ([5]; Safety Data Set N=78): 3
Dyspepsia, Grade 2 ([5]; Safety Data Set N=78): 5
Fatigue, All Grades, % ([5]; Safety Data Set N=78): (43.6) %
Fatigue, Grade 1 ([5]; Safety Data Set N=78): 13
Fatigue, Grade 2 ([5]; Safety Data Set N=78): 16
Fatigue, Grade 3 ([5]; Safety Data Set N=78): 5
Headache, All Grades, % ([5]; Safety Data Set N=78): (20.5) %
Headache, Grade 1 ([5]; Safety Data Set N=78): 13
Headache, Grade 2 ([5]; Safety Data Set N=78): 2
Headache, Grade 3 ([5]; Safety Data Set N=78): 1
Insomnia, All Grades, % ([5]; Safety Data Set N=78): (14.1) %
Insomnia, Grade 1 ([5]; Safety Data Set N=78): 8
Insomnia, Grade 2 ([5]; Safety Data Set N=78): 3
Nausea, All Grades, % ([5]; Safety Data Set N=78): (30.8) %
Nausea, Grade 1 ([5]; Safety Data Set N=78): 18
Nausea, Grade 2 ([5]; Safety Data Set N=78): 4
Nausea, Grade 3 ([5]; Safety Data Set N=78): 2
Oedema peripheral, All Grades, % ([5]; Safety Data Set N=78): (12.8) %
Oedema peripheral, Grade 1 ([5]; Safety Data Set N=78): 8
Oedema peripheral, Grade 2 ([5]; Safety Data Set N=78): 2
Pyrexia, All Grades, % ([5]; Safety Data Set N=78): (19.2) %
Pyrexia, Grade 1 ([5]; Safety Data Set N=78): 9
Pyrexia, Grade 2 ([5]; Safety Data Set N=78): 6
Vomiting, All Grades, % ([5]; Safety Data Set N=78): (10.3) %
Vomiting, Grade 1 ([5]; Safety Data Set N=78): 6
Vomiting, Grade 2 ([5]; Safety Data Set N=78): 2
Grade 3 and 4 reversible ALT elevations, % of subjects [5, 6]: 12%
Grade 3 and 4 reversible ALT elevations, number of subjects [5, 6]: 9 subjects
